From US20050261319A1, “Novel 2-amino-4-quinazolinones and 2-amino-4-oxoquinazolones as LXR nuclear receptor binding compounds with partial agonistic properties” (priority 2002, published 2005)
Read-outs that look alike come from different tables or passages of the source.

What was measured:
Type in all cases: cell-based
[1] = target: T1, GAL4-LXRa-LBD (Homo sapiens, UniProt Q13133); experiment: Mammalian one hybrid (M1H) luciferase assay in HEK293 cells, LXR alpha LBD
T1 construct: expressed in transfected cells; host or cells: HEK293
T1 sequence (Q13133 209-447 limits assumed): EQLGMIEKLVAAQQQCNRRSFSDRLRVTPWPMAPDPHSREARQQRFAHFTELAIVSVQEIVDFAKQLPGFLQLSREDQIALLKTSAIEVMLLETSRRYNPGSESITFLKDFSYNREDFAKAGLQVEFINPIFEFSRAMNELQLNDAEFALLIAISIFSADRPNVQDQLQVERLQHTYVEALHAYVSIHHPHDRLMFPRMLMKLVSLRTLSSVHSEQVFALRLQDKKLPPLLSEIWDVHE
Method: (§1) For TR1040001892, TR1040011382, TR1040002211, and TR1040002212, HEK293 cells are grown in 96 well plates and co-transfected with pFR-luc (Stratagene) and pCMV-BD-LXRa-LBD or pCMV-BD-LXRb-LBD (each 100 ng of plasmid DNA per well). Transfection is carried using Lipfectamine 2000 (Gibco-BRL) according to the manufacturers protocol. The ligand binding domains (LBD) of LXRa and LXRb are cloned into the pCMV-BD-GW (the Gateway Reading Frame Cassette B is cloned as an EcoRV fragment into Sma1 site of pCMV-BD) applying the manufacturer protocols for the Gateway system (Invitrogen). […] The type of assay used here is a mammalian one hybrid (M1 H) assay that is known to those skilled in the art.

[2] = target: T2, GAL4-LXRb-LBD (Homo sapiens, UniProt P55055); experiment: Mammalian one hybrid (M1H) luciferase assay in HEK293 cells, LXR beta LBD; conditions: for LXR beta LBD construct mediated luciferase activity compared with LXR alpha construct: M1H assay
T2 construct: expressed in transfected cells; host or cells: HEK293
T2 sequence (P55055 222-460 limits assumed): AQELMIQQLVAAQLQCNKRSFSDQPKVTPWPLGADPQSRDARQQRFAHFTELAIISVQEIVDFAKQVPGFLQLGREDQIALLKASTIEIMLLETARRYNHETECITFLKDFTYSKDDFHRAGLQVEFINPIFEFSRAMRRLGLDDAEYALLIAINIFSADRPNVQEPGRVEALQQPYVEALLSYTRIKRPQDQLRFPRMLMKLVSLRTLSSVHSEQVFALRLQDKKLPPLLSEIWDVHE
Method: as §1

[3] = system: ABCA1 and ABCG1 in THP-1 cells; experiment: mRNA content of LXR target genes ABCA1 and ABCG1 in THP-1 cells (TaqMan)
Method: THP-1 (3×10^5 cells per dish) cells were seeded in […] RPMI-1640 medium (ATTC, Cat. No. 30-2001) containing 10% FCS (GIBCO) and 100 nM TPA and cultivated at 37° C. in 5% CO2 for 24 or 48 hours. HepG2 (4.5×10^5 cells per dish) were seeded in 24 well dishes in 3 ml DMEM Medium containing 10% FCS (GIBCO) and cultivated at 37° C. in 5% CO2 for 48 hours as indicated in FIG. 8B or until they are approx. 60% confluent.
The medium was then removed and replaced with medium containing 10% charcoal/stripped FCS (Hyclone) for 12 h.
LXR compounds are dissolved in DMSO, with the final solvent concentration never exceeding 0.125%. All treatments are done in triplicates and experiments repeated twice. Total RNA is extracted using the Qiagen Rneasy Mini Kit and treated with DNase (DNA free kit, Ambion). RNA is reverse transcribed with Oligo (dT) primer and real-time reverse transcription PCR (TaqMan) is performed using the ABI Prism 7900HT Sequence Detection System and reagents supplied by Applied Biosystems. mRNA steady state levels are normalised to H3 histone (H3F3A) expression levels.
The sequences of forward primers, reverse primers and TaqMan probes are as follows

[4] = system: HepG2 liver cells; experiment: Triglyceride assay in HepG2 cells; conditions: 24 h, 25 pM
Method: Methods: Cultures of the monocyte-macrophage cell line and the hepatocytes HepG2 are obtained from the American Type tissue Culture Collection, Rockville, Md. and were grown in RPMI 1640 medium supplemented with 10% fetal bovine serum, 10 mM HEPES, 2 mM pyruvate, 50 uM (3-Mercaptoethanol (THP-1) and Minimum essential medium (Eagle) with 2 mM L-glutamine and Earle's BSS supplemented with 10% fetal bovine serum, 2 mM glutamin, 0.1 mM non-essential amino acids, 1 mM sodium pyruvate (HepG2), respectively, at 37° C. in 5% CO2.
For cholesterol efflux measurements and triglyceride analysis cells are seeded in 6 well plates at 1.8×10^6 cells (THP-1) and 1×10^6 cells (HepG2) per well, respectively.
TRIGLYCERIDE ASSAY HepG2 cells are seeded in poly-L-Lysine coated 6 well plates at 1×10^6 cells per well in EMEM medium containing 10% FCS until they were appr. 60% confluent. Before treatment with LXR compounds growth medium is changed to medium containing 10% charcoal/dextran-stripped FCS for 12 h. Treatment is done for 24 h in medium containing 10% charcoal/dextran-stripped FCS. Cells are washed twice with ice-cold PBS/0.2% BSA and twice with cold PBS and all liquid carefully removed. Triglyceride are extracted with 1.5 ml hexane/isopropanol=3: 2 per well with gentle shaking for 2-3 h at RT according to Pan et al. (2002) JBC277, 4413-4421 and Goti et al. (1998) Biochem J, 332, 57-65. The extraction solution is collected, dried under vacuum and redissolved in isopropanol/1.5% triton. The remaining cellular proteins are lysed with 0.3 N NaOH and protein content measured with the Biorad Bradford reagent.
Triglyceride levels are measured as esterified glycerol using a commercial enzymatic colorimetric kit (Sigma 343-25P). In a preliminary assay it is checked by omitting the lipase enzyme that contribution of free glycerol is negligible.

Which “luciferase reporter gene expression mediated through GAL4-LXRa-LBD” value [1] does the source give for `C=CCn1c(N2C3CC(C)(C)CC2(C)C3)nc2ccc(I)cc2c1=O` (centres unmarked) [formula (9)] here?
Its value is “activate luciferase reporter gene expression in a dose dependent manner”.

What about the “luciferase reporter gene expression mediated through GAL4-LXRb-LBD” value [2] of the same molecule?
Its value is “activate luciferase reporter gene expression in a dose dependent manner”.

And the “LXR beta LBD construct mediated luciferase activity compared with LXR alpha construct” value [2]?
The value was “much stronger than with LXR alpha construct”.

What about the “selectivity of upregulation of ABCA1 and ABCG1 in THP-1 cells versus FAS and SREBP-1c in HepG2 cells” value (“selectivity” for short) [3] of the same molecule?
Its value is “selective upregulation”.

And the “selectivity” value ([3]; listed as TR1040001892)?
Its value is “selective transcriptional effect”.

And the triglyceride mass [4]?
Its triglyceride mass is “do not cause a significant increase”.

With `CCCn1c(N2[C@@H]3CC(C)(C)C[C@@]2(C)C3)nc2cccc(F)c2c1=O` [formula (11)] as the molecule, how does the “luciferase reporter gene expression mediated through GAL4-LXRa-LBD” value [1] read?
Its value is “activate luciferase reporter gene expression in a dose dependent manner”.

And the “luciferase reporter gene expression mediated through GAL4-LXRb-LBD” value [2]?
Its value is “activate luciferase reporter gene expression in a dose dependent manner”.

And the “selectivity” value [3]?
Its value is “reduced selectivity”.

And the triglyceride mass [4]?
The triglyceride mass was “slight increase”.

Which “luciferase reporter gene expression mediated through GAL4-LXRa-LBD” value [1] does the source give for `C=CCn1c(N2[C@@H]3CC(C)(C)C[C@@]2(C)C3)nc2cccc(F)c2c1=O` [formula (12)] here?
The value was “activate luciferase reporter gene expression in a dose dependent manner”.

And the “luciferase reporter gene expression mediated through GAL4-LXRb-LBD” value [2]?
Its value is “activate luciferase reporter gene expression in a dose dependent manner”.

And the “selectivity” value [3]?
The value was “reduced selectivity”.

And the triglyceride mass [4]?
The triglyceride mass was “slight increase”.

`CC(C)n1c(N2C3CC(C)(C)CC2(C)C3)nc2ccc(I)cc2c1=O` (centres unmarked) [formula (10)] was tested. Which “luciferase reporter gene expression mediated through GAL4-LXRa-LBD” value [1] did it give?
Its value is “activate luciferase reporter gene expression in a dose dependent manner”.

What about the “luciferase reporter gene expression mediated through GAL4-LXRb-LBD” value [2] of the same molecule?
The value was “activate luciferase reporter gene expression in a dose dependent manner”.

What about the “LXR beta LBD construct mediated luciferase activity compared with LXR alpha construct” value [2] of the same molecule?
Its value is “much stronger than with LXR alpha construct”.

What about the “selectivity” value [3] of the same molecule?
The value was “selective upregulation”.

And the “selectivity” value ([3]; listed as TR1040011382)?
The value was “selective transcriptional effect”.

And the triglyceride mass [4]?
Its triglyceride mass is “do not cause a significant increase”.
